From patent US7129213B2, “Tripeptides and tripeptide derivatives for the treatment of neurodegenerative diseases” (Neurotell AG, priority 2002, dated 2006)
Counter-ions that a name gives are not always drawn. Where a SMILES comes first, the peptide text is derived from it.

Experiments:
[1] = test system: type II glucocorticoid receptors in the hippocampus; assay: Dexamethasone model, determination of the corticoid receptors; type: in vivo, rat; details: rats pretreated by dexamethasone, 20 mg/kg/day 10 days
Experimental: 20 rats were orally administered 50 mg/kg/day of dexamethasone over a period of 21 days. At Day 19, the animals were chloralized (360 mg/kg), and a catheter was placed into the carotid artery as described above. At Day 21, the animals were randomly divided into two groups: • one group of 10 rats received an intracarotid injection of 1 ml/kg/day of normal saline for a period of 10 days (controls). • one group of 10 rats received 20 mg/kg/day of HCl-Gly-Phe-PrONH2 dissolved in normal saline for a period of 10 days. The injections were given at 9.00 a.m.
After the last learning session at 11.00 a.m., the rats were sacrificed by means of decapitation, and the hippocampi were quickly removed and put on a plate cooled to 0° C. The number of glucocorticoid receptors was determined by a binding method using a labeled corticoid and a specific inhibitor to the binding of the corticoid to the receptor (here a total agonist). The protein content was measured by Lowry's method.
The hippocampi of each rat were homogenized in 2 ml of sodium EDTA Glycerol molybdate buffer. […] An aliquot of the supernatant was diluted in distilled water, and the protein content was measured by Lowry's method. […]
After one night of incubation at 4° C., charcoal/dextran was added to absorb […] dexamethasone. After centrifugation, the radioactivity of the supernatant was measured by liquid scintillation. […]

hippocampal neurons = assay: Gp120 model, neuronal count; type: in vivo, rat; details: CAIII layers, after ICV Gp120; 10 mg/kg/day
Experimental: Day 21. Three days later (recovery from the postoperative shock), the 30 rats were randomly divided into three group of 10 animals each: • the first group of 10 rats received an intracarotid injection of 1 ml/kg/day of normal saline for a period of 10 days. • the second group of 10 rats received 10 mg/kg/day of HCl-Gly-Phe-ProNH2 (dissolved in normal saline) for a period of 10 days. • the third group received 20 mg/kg/day of HCl-Gly-Phe-ProNH2 under the same conditions. The injections were given between 9.00 and 9.30 a.m.
Day 30. After the last learning session, the rats were sacrificed by means of decapitation, the brain was rapidly removed and frozen at […] in liquid nitrogen vapor. Brain sections were made by Cryocut at −20° C.
The sections are defrosted and stained with neutral red. After fixation, the number of neurons on one slice of the hippocampus was measured. The method is standardized by counting the neurons on the same slice. An index of the number of neurons compared to a control rat allows for a more reliable quantification than the simple counting.
The neurons are counted in the CAIII layers of the hippocampus. […] By definition, the value found in the control animals is 100 with a maximum variation of 5%.

## NCC(=O)N[C@@H](Cc1ccccc1)C(=O)N1CCC[C@H]1C(N)=O [HCl-Gly-Phe-ProNH2, glycyl-L-phenylalanyl-L-prolineamide] (H-Gly-Phe-Pro-NH2)
[1]
  type II glucocorticoid receptors in the hippocampus: **73 +/− 4 femtomols/mg of proteins
[1]; listed as HCL-GLY-PHE-PRONH2
  type II glucocorticoid receptors in the hippocampus: reduces the down regulation of the glucocorticoid receptors
Hippocampal neurons
  Counting of the hippocampal neurons (index, control animals = 100): 46 +/− 4
